Measurements taken from ChEMBL document CHEMBL1201862, “PubChem BioAssay data set” (2004).
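Protocol summary: plate cells (96-well), add compound at 5 concentrations, incubate 48 h, interpolate endpoints linearly. GI50 = concentration required for 50% inhibition of growth.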 The source made the active and inactive calls. Rule as the data show it: active = GI50 up to about 1.1 µM and inactive = higher.

Tests used:
Assay in all cases: inhibition of tumour cell growth, NCI panel, 48 h
[1] = system: SK-MEL-28
[2] = system: OVCAR-5
[3] = system: HT-29
[4] = system: NCI-H460
[5] = system: OVCAR-8
[6] = system: TK-10
[7] = system: HCC 2998
[8] = system: SR
[9] = system: UO-31
[10] = system: SF-268
[11] = system: RPMI-8226
[12] = system: UACC-257
[13] = system: M14
[14] = system: SK-OV-3
[15] = system: SN12C
[16] = system: CAKI-1
[17] = system: IGROV-1
[18] = system: MDA-N
[19] = system: NCI/ADR-RES
[20] = system: MDA-MB-231

Row | SMILES | GI50 [1] | GI50 [2] | GI50 [3] | GI50 [4] | GI50 [5] | GI50 [6] | GI50 [7] | GI50 [8] | GI50 [9] | GI50 [10] | GI50 [11] | GI50 [12] | GI50 [13] | GI50 [14] | GI50 [15] | GI50 [16] | GI50 [17] | GI50 [18] | GI50 [19] | GI50 [20]
1 | Cn1cnnc1Sc1c([N+](=O)[O-])nc(-c2ccc([N+](=O)[O-])cc2)n1C | 16 µM (inactive) | 27.7 µM (inactive) | 18.4 µM (inactive) | 36.1 µM (inactive) | 18.1 µM (inactive) | 18.7 µM (inactive) | 17.5 µM (inactive) | 16.2 µM (inactive) | 14.7 µM (inactive) | 16.9 µM (inactive) | 16.1 µM (inactive) | 16 µM (inactive) | 16.4 µM (inactive) | > 100 µM (inactive) | 16.1 µM (inactive) | 32.7 µM (inactive) | 17.5 µM (inactive) | – | – | –
2 | Cc1cc(C)c(S(=O)(=O)N2CCN(S(=O)(=O)c3c(C)cc(C)cc3C)OCCCCCO2)c(C)c1 | > 100 µM (inactive) | > 100 µM (inactive) | > 100 µM (inactive) | > 100 µM (inactive) | > 100 µM (inactive) | > 100 µM (inactive) | – | – | > 100 µM (inactive) | > 100 µM (inactive) | – | > 100 µM (inactive) | > 100 µM (inactive) | > 100 µM (inactive) | > 100 µM (inactive) | > 100 µM (inactive) | > 100 µM (inactive) | > 100 µM (inactive) | > 100 µM (inactive) | –
3 | O=C1/C(=C/C=C/c2ccccc2)N=C(c2ccccc2)N1C1Nc2cc3c(cc2S1)NC(N1C(=O)/C(=C/C=C/c2ccccc2)N=C1c1ccccc1)S3 (configuration not stated) | 38.2 µM (inactive) | > 100 µM (inactive) | 23.3 µM (inactive) | 15.8 µM (inactive) | 44.4 µM (inactive) | 86.7 µM (inactive) | 11.4 µM (inactive) | < 0.01 µM (active) | 28.1 µM (inactive) | 9.68 µM (inactive) | 13.2 µM (inactive) | > 100 µM (inactive) | 26.4 µM (inactive) | > 100 µM (inactive) | – | 73.6 µM (inactive) | 48 µM (inactive) | – | 67.9 µM (inactive) | 31.6 µM (inactive)
4 | C=C1CC[C@@H]2C(C)(C)CCC[C@@]2(C)[C@@H]1Cc1cc(O)ccc1O | 2.56 µM (inactive) | 15.1 µM (inactive) | 16.5 µM (inactive) | 14 µM (inactive) | 3.88 µM (inactive) | 3.17 µM (inactive) | 13.8 µM (inactive) | 2.42 µM (inactive) | 2.52 µM (inactive) | 3.38 µM (inactive) | 3.14 µM (inactive) | 1.93 µM (inactive) | 11.8 µM (inactive) | 2.3 µM (inactive) | 4.27 µM (inactive) | 8.26 µM (inactive) | 2.13 µM (inactive) | – | – | –
5 | COc1ccccc1/C=C1\NC(=S)N(/C=C2\C(=O)Oc3ccccc3C2=O)C1=O | 51.5 µM (inactive) | > 100 µM (inactive) | 43.5 µM (inactive) | 41.4 µM (inactive) | 36.6 µM (inactive) | 33.5 µM (inactive) | 53.7 µM (inactive) | – | 21.2 µM (inactive) | 98.6 µM (inactive) | – | 42.4 µM (inactive) | 64.1 µM (inactive) | 80.4 µM (inactive) | > 100 µM (inactive) | > 100 µM (inactive) | 26.6 µM (inactive) | – | 24.6 µM (inactive) | 40.7 µM (inactive)
6 | CC1(C)CC2(S(=O)(=O)c3ccccc3)ON1CC2S(=O)(=O)c1ccccc1 (configuration not stated) | 86.1 µM (inactive) | > 100 µM (inactive) | > 100 µM (inactive) | > 100 µM (inactive) | 74.1 µM (inactive) | > 100 µM (inactive) | > 100 µM (inactive) | 39.4 µM (inactive) | 94.2 µM (inactive) | > 100 µM (inactive) | 35.7 µM (inactive) | > 100 µM (inactive) | > 100 µM (inactive) | > 100 µM (inactive) | > 100 µM (inactive) | 77.3 µM (inactive) | > 100 µM (inactive) | – | – | –
7 | NS(=O)(=O)c1ccc(NC(=O)Cc2nc3ccccc3s2)cc1 | 17.7 µM (inactive) | 20.7 µM (inactive) | 18.3 µM (inactive) | 17.5 µM (inactive) | 20.4 µM (inactive) | 24.1 µM (inactive) | 19.5 µM (inactive) | 20.1 µM (inactive) | 22.5 µM (inactive) | 16.2 µM (inactive) | 21.3 µM (inactive) | 15.8 µM (inactive) | 15.7 µM (inactive) | 25.7 µM (inactive) | 17.2 µM (inactive) | 16.5 µM (inactive) | 15.7 µM (inactive) | – | – | –
8 | COc1cc(O)ccc1C(=S)SC | > 100 µM (inactive) | > 100 µM (inactive) | > 100 µM (inactive) | 77.6 µM (inactive) | 58.7 µM (inactive) | 60.4 µM (inactive) | – | 43.2 µM (inactive) | 51.6 µM (inactive) | 67.1 µM (inactive) | 21.8 µM (inactive) | 51.5 µM (inactive) | > 100 µM (inactive) | > 100 µM (inactive) | 1.45 µM (inactive) | 56.8 µM (inactive) | 42.6 µM (inactive) | – | 38.9 µM (inactive) | 16.2 µM (inactive)
